Measurements: BindingDB's records for doi:10.7270/Q2HQ3XB9 (Nmmlsc, 2008)

Target: T1, Estrogen receptor (Homo sapiens, UniProt P03372)
T1 sequence (P03372 whole entry): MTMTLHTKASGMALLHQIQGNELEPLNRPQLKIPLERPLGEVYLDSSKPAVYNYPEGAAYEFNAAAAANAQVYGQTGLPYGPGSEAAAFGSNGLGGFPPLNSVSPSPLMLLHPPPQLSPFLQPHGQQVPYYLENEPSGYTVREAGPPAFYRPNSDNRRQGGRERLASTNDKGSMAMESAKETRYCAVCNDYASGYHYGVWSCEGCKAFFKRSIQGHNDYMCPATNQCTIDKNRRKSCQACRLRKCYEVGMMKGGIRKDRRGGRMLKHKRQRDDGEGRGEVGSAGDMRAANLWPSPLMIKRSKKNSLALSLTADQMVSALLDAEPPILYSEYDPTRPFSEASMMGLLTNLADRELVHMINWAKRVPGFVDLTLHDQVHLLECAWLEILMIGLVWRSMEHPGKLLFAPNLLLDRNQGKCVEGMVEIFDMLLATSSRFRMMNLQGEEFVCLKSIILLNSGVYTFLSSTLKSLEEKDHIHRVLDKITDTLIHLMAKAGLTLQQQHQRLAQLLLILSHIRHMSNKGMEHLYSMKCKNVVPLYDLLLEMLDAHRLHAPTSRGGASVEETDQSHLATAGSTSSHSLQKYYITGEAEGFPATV
Assay: fluorescent estrogen displacement from ERalpha – cell-based, Cos7 ERalpha-GFP, flow cytometry, dose response (AID 1223)

[1] = inactive by the depositor's call

SMILES	EC50 [1] [nM]	EC50 [nM]
COc1cccc(NS(=O)(=O)c2ccc3c(c2)C2C=CCC2C(c2ccc(C(=O)O)cc2)N3)c1 (stereo not given)	3880	–
COc1ccc(NS(=O)(=O)c2ccc3c(c2)[C@H]2C=CC[C@H]2[C@@H](c2ccc(C(=O)O)cc2)N3)cc1	3600	–
Brc1cc2c(cc1[C@@H]1Nc3ccccc3[C@@H]3C=CC[C@@H]31)OCO2	–	782
CC(=O)c1ccc2c(c1)C1C=CCC1C(c1cccc([N+](=O)[O-])c1)N2 (stereo not given) [1-[4-(3-nitrophenyl)-3a,4,5,9b-tetrahydro-3H-cyclopenta[c]quinolin-8-yl]ethanone]	–	> 10000
COc1ccccc1N1CCN(C(=O)c2ccc3nc(-c4ccco4)c(-c4ccco4)nc3c2)CC1 [2,3-di-2-furyl-6-{[4-(2-methoxyphenyl)piperazin-1-yl]carbonyl}quinoxaline]	–	15.4
O=C(OCC(=O)N1CCN(C(=O)c2ccco2)CC1)c1cc(-c2ccco2)nc2ccccc12 [2-(2-furanyl)-4-quinolinecarboxylic acid [2-[4-[2-furanyl(oxo)methyl]-1-piperazinyl]-2-oxoethyl] ester]	33.9	–
O=C(Nc1cc(C(F)(F)F)ccc1N1CCOCC1)C1Cc2ccccc2CN1C(=O)c1ccco1 (stereo not given) [2-(2-furoyl)-N-[2-morpholino-5-(trifluoromethyl)phenyl]-3,4-dihydro-1H-isoquinoline-3-carboxamide]	–	367
Cc1cc(C)cc(OCC(=O)Nc2ccc(N3CCCC3)cc2)c1 [2-(3,5-dimethylphenoxy)-N-(4-pyrrolidin-1-ylphenyl)acetamide]	–	> 10000
Cc1nnc(SCC(=O)NC(=O)NCc2ccco2)n1Cc1ccccc1 [2-[(4-benzyl-5-methyl-1,2,4-triazol-3-yl)sulfanyl]-N-(furan-2-ylmethylcarbamoyl)acetamide]	44.7	–
COc1nc(-c2ccc(Cl)cc2)ccc1-c1noc(-c2ccco2)n1 [3-[6-(4-chlorophenyl)-2-methoxy-3-pyridinyl]-5-(2-furanyl)-1,2,4-oxadiazole]	–	48.7
CC(=O)Oc1ccc(C2Nc3c(C(=O)O)ccc([N+](=O)[O-])c3C3C=CCC32)cc1 (stereo not given) [4-(4-acetoxyphenyl)-9-nitro-3a,4,5,9b-tetrahydro-3H-cyclopenta[c]quinoline-6-carboxylic acid]	–	> 10000
C[C@]12CC[C@@H]3c4ccc(O)cc4[C@@H](O)C[C@H]3[C@@H]1CC[C@@H]2O [(6S,8R,9S,13S,14S,17S)-13-methyl-6,7,8,9,11,12,14,15,16,17-decahydrocyclopenta[a]phenanthrene-3,6,17-triol]	–	36.6

Next, values leading:

EC50 [1] [nM]	EC50 [nM]	SMILES
–	> 10000	CCn1c(=NC(=O)c2ccc(-n3c(O)ccc3O)cc2)sc2c(OC)ccc(OC)c21 [4-[2,5-bis(oxidanylidene)pyrrolidin-1-yl]-N-(3-ethyl-4,7-dimethoxy-1,3-benzothiazol-2-ylidene)benzamide]
–	4.25	O=C(COC(=O)CCC(=O)c1cccs1)NCc1ccco1 [4-keto-4-(2-thienyl)butyric acid [2-(2-furfurylamino)-2-keto-ethyl] ester]
–	44.4	Cc1cc(C)c2c(c1)[C@@H]1C=CC[C@@H]1[C@H](c1ccc(S(=O)(=O)N3CCOCC3)cc1)N2 [(3aS,4R,9bR)-6,8-dimethyl-4-[4-(morpholin-4-ylsulfonyl)phenyl]-3a,4,5,9b-tetrahydro-3H-cyclopenta[c]quinoline]
1010	–	O=C(O)c1cc(Cl)c2c(c1)[C@@H]1C=CC[C@@H]1[C@H](c1ccc(S(=O)(=O)N3CCOCC3)cc1)N2 [(3aS,4R,9bR)-6-chloranyl-4-(4-morpholin-4-ylsulfonylphenyl)-3a,4,5,9b-tetrahydro-3H-cyclopenta[c]quinoline-8-carboxylic acid]
3.17	–	Cc1cc(C(=O)Nc2sc3c(c2C#N)CCC3)no1 [MLS000066325]
24.3	–	Cn1ccnc1SCC(=O)Nc1ccc2nc(SCC(=O)NC3CC3)sc2c1 [MLS000085771]
9.68	–	COc1ccc(CNC(=O)c2cc(-c3cccs3)on2)cc1 [MLS000087249]
–	1430	COc1ccc(C(=O)NN=C(C)c2ccc3c(c2)C2C=CCC2C(c2ccccc2)N3)cc1 (stereo not given) [SMR000176871]
